Patent publication US11667673B2, “Therapeutically active compounds and their methods of use” (Servier Pharmaceuticals LLC, priority 2013, dated 2023)

System: U87MG cells
Experiment: Cellular assay for IDH1m inhibitors: inhibition of 2-HG production in U87MG cells (LC-MS)
Assay type: cell-based
Method: Cells (HT1080 or U87MG) are grown in T125 flasks in DMEM containing 10% FBS, 1× penicillin/streptomycin and 500 ug/mL G418 (present in U87MG cells only). They are harvested by trypsin and seeded into 96 well white bottom plates at a density of 5000 cell/well in 100 ul/well in DMEM with 10% FBS. […] Cells are incubated overnight at 37° C. in 5% CO2. The next day test compounds are made up at 2× the final concentration and 100 ul are added to each cell well. The final concentration of DMSO is 0.2% and the DMSO control wells are plated in row G. The plates are then placed in the incubator for 48 hours. […] The cell plate is placed back in the incubator for another 24 hours. At 72 hours post compound addition, 10 mL/plate of Promega Cell Titer Glo reagent is thawed and mixed. The cell plate is removed from the incubator and allowed to equilibrate to room temperature. Then 100 ul of Promega Cell Titer Glo reagent is added to each well of media. The cell plate is then placed on an orbital shaker for 10 minutes and then allowed to sit at room temperature for 20 minutes. The plate is then read for luminescence with an integration time of 500 ms.

Molecule	IC50 (inhibition of 2-HG production, U87MG cells, 48 hours) [µM]	IC50 (Homo sapiens, U-87 MG, 48 h) [µM]
(S)—N—((S)-1-(2-Chlorophenyl)-2-(3,3-difluorocyclobutylamino)-2-oxoethyl)-1-(3-cyanophenyl)-N-(1H-indazol-7-yl)-5-oxopyrrolidine-2-carboxamide [compound 186]	< 0.1	
CN1C[C@@H](C(=O)N(c2cccc(F)c2)[C@H](C(=O)NC2CC(F)(F)C2)c2ccccc2Cl)N(c2cc(C#N)ccn2)C1=O [compound 79]		< 0.1
O=C(NC1CCC(F)(F)CC1)[C@H](c1ccccc1Cl)N(C(=O)[C@@H]1CCC(=O)N1c1ncccn1)c1cccc(F)c1 [compound 4, (S)—N—((S)-1-(2-chlorophenyl)-2-((4,4-difluorocyclohexyl)amino)-2-oxoethyl)-N-(3-fluoro-phenyl)-5-oxo-1-(pyrimidin-2-yl)pyrrolidine-2-carboxamide]		< 0.1
